Experimental data reported in US12281121B2, “N-containing heteroaryl derivative and pharmaceutical composition comprising same as active ingredient for prevention or treatment of cancer” (VORONOI Inc., priority 2019, dated 2025).

What was measured:
Assay in all cases: ScanMAX Kinase analysis panel (DiscoverX)
Assay type in all cases: binding
[1] = target: T1, ABL1(H396P)-nonphosphorylated (Homo sapiens, UniProt P00519, H396P); details: read-out: adjusted percentage (% control)
T1 construct: purchased DiscoverX
Experimental: (§1) The following experiment was performed in order to evaluate the inhibitory activity of the compound according to the present invention against more enzymes. Specifically, for Examples 1 and 3 selected among the Example compounds of the present invention, the enzyme (kinase) selectivity was set to be measured by commissioning DiscoverX, and an experiment was conducted using a ScanMAX™ Kinase analysis panel. In this case, the concentration of the drug treated with the enzyme was set to 1 μM in DMSO, the adjusted percentage (% control) was determined in the same manner as in the following Equation 1, and the results are shown in the following Table 3. (Example compound−Positive control)/(Negative control−Positive control)×100 [Equation 1]
(§2) In addition, the enzyme selectivity of the present invention was determined to be active against the corresponding enzyme when the adjusted percentage was <35% (that is, less than 35%).

[2] = target: T2, ABL1(H396P)-phosphorylated (Homo sapiens, UniProt P00519, H396P); details: read-out: adjusted percentage (% control)
T2 construct: purchased DiscoverX
Experimental: as §1, §2

[3] = target: T3, ABL1(M351T)-phosphorylated (Homo sapiens, UniProt P00519, M351T); details: read-out: adjusted percentage (% control)
T3 construct: purchased DiscoverX
Experimental: as §1, §2

[4] = target: T4, ABL1(Q252H)-phosphorylated (Homo sapiens, UniProt P00519, Q252H); details: read-out: adjusted percentage (% control)
T4 construct: purchased DiscoverX
Experimental: as §1, §2

[5] = target: T5, ABL1(T315I)-nonphosphorylated (Homo sapiens, UniProt P00519, T315I); details: read-out: adjusted percentage (% control)
T5 construct: purchased DiscoverX
Experimental: as §1, §2

[6] = target: T6, ABL1(T315I)-phosphorylated (Homo sapiens, UniProt P00519, T315I); details: read-out: adjusted percentage (% control)
T6 construct: purchased DiscoverX
Experimental: as §1, §2

[7] = target: T7, ABL1(Y253F)-phosphorylated (Homo sapiens, UniProt P00519, Y253F); details: read-out: adjusted percentage (% control)
T7 construct: purchased DiscoverX
Experimental: as §1, §2

ABL1-phosphorylated = target: T8, ABL1-phosphorylated (Homo sapiens, UniProt P00519); details: read-out: adjusted percentage (% control)
T8 construct: purchased DiscoverX
Experimental: as §1, §2

AMPK-alpha1 = target: T9, AMPK-alpha1 (Homo sapiens, UniProt Q13131); details: read-out: adjusted percentage (% control)
T9 construct: purchased DiscoverX
Experimental: as §1, §2

AURKA = target: T10, AURKA (Homo sapiens, UniProt O14965); details: read-out: adjusted percentage (% control)
T10 construct: purchased DiscoverX
Experimental: as §1, §2

AXL = target: T11, AXL (Homo sapiens, UniProt P30530); details: read-out: adjusted percentage (% control)
T11 construct: purchased DiscoverX
Experimental: as §1, §2

DLK = target: T12, DLK (Homo sapiens, UniProt Q12852); details: read-out: adjusted percentage (% control)
T12 construct: purchased DiscoverX
Experimental: as §1, §2

[8] = target: T13, EGFR(L747-E749del, A750P) (Homo sapiens, UniProt P00533, A750P/DEL747-749); details: read-out: adjusted percentage (% control)
T13 construct: purchased DiscoverX
Experimental: as §1, §2

FGFR1 = target: T14, FGFR1 (Homo sapiens, UniProt P11362); details: read-out: adjusted percentage (% control)
T14 construct: purchased DiscoverX ScanMAX Kinase analysis panel
Experimental: as §1, §2

FLT3 = target: T15, FLT3 (Homo sapiens, UniProt P36888); details: read-out: adjusted percentage (% control)
T15 construct: purchased DiscoverX ScanMAX Kinase analysis panel
Experimental: as §1, §2

FLT3(D835V) = target: T16, FLT3(D835V) (Homo sapiens, UniProt P36888, D835V); details: read-out: adjusted percentage (% control)
T16 construct: purchased DiscoverX ScanMAX Kinase analysis panel
Experimental: as §1, §2

FLT3(D835Y) = target: T17, FLT3(D835Y) (Homo sapiens, UniProt P36888, D835Y); details: read-out: adjusted percentage (% control)
T17 construct: purchased DiscoverX ScanMAX Kinase analysis panel
Experimental: as §1, §2

FLT3(ITD, F691L) = details: 1 μM
Experimental: as §1, §2

FLT3(R834Q) = target: T18, FLT3(R834Q) (Homo sapiens, UniProt P36888, R834Q); details: read-out: adjusted percentage (% control)
T18 construct: purchased DiscoverX ScanMAX Kinase analysis panel
Experimental: as §1, §2

HCK = target: T19, HCK (Homo sapiens, UniProt P08631); details: read-out: adjusted percentage (% control)
T19 construct: purchased DiscoverX ScanMAX Kinase analysis panel
Experimental: as §1, §2

ITK = target: T20, ITK (Homo sapiens, UniProt Q08881); details: read-out: adjusted percentage (% control)
T20 construct: purchased DiscoverX ScanMAX Kinase analysis panel
Experimental: as §1, §2

KIT(A829P) = target: T21, KIT(A829P) (Homo sapiens, UniProt P10721, A829P); details: read-out: adjusted percentage (% control)
T21 construct: purchased DiscoverX ScanMAX Kinase analysis panel
Experimental: as §1, §2

KIT(V559D) = target: T22, KIT(V559D) (Homo sapiens, UniProt P10721, V559D); details: read-out: adjusted percentage (% control)
T22 construct: purchased DiscoverX ScanMAX Kinase analysis panel
Experimental: as §1, §2

LCK = target: T23, LCK (Homo sapiens, UniProt P06239); details: read-out: adjusted percentage (% control)
T23 construct: purchased DiscoverX ScanMAX Kinase analysis panel
Experimental: as §1, §2

MEK5 = target: T24, MEK5 (Homo sapiens, UniProt Q13163); details: read-out: adjusted percentage (% control)
T24 construct: purchased DiscoverX ScanMAX Kinase analysis panel
Experimental: as §1, §2

MST1 = target: T25, MST1 (Homo sapiens, UniProt Q13043); details: read-out: adjusted percentage (% control)
T25 construct: purchased DiscoverX ScanMAX Kinase analysis panel
Experimental: as §1, §2

PDGFRB = target: T26, PDGFRB (Homo sapiens, UniProt P09619); details: read-out: adjusted percentage (% control)
T26 construct: purchased DiscoverX ScanMAX Kinase analysis panel
Experimental: as §1, §2

PLK4 = target: T27, PLK4 (Homo sapiens, UniProt O00444); details: read-out: adjusted percentage (% control)
T27 construct: purchased DiscoverX ScanMAX Kinase analysis panel
Experimental: as §1, §2

RET(V804L) = target: T28, RET(V804L) (Homo sapiens, UniProt P07949, V804L); details: read-out: adjusted percentage (% control)
T28 construct: purchased DiscoverX ScanMAX Kinase analysis panel
Experimental: as §1, §2

RIOK3 = target: T29, RIOK3 (Homo sapiens, UniProt O14730); details: read-out: adjusted percentage (% control)
T29 construct: purchased DiscoverX ScanMAX Kinase analysis panel
Experimental: as §1, §2

SNARK = target: T30, SNARK (Homo sapiens, UniProt Q9H093); details: read-out: adjusted percentage (% control)
T30 construct: purchased DiscoverX ScanMAX Kinase analysis panel
Experimental: as §1, §2

SYK = target: T31, SYK (Homo sapiens, UniProt P43405); details: read-out: adjusted percentage (% control)
T31 construct: purchased DiscoverX ScanMAX Kinase analysis panel
Experimental: as §1, §2

TRKA = target: T32, TRKA (Homo sapiens, UniProt P04629); details: read-out: adjusted percentage (% control)
T32 construct: purchased DiscoverX ScanMAX Kinase analysis panel
Experimental: as §1, §2

TRKB = target: T33, TRKB (Homo sapiens, UniProt Q16620); details: read-out: adjusted percentage (% control)
T33 construct: purchased DiscoverX ScanMAX Kinase analysis panel
Experimental: as §1, §2

TRKC = target: T34, TRKC (Homo sapiens, UniProt Q16288); details: read-out: adjusted percentage (% control)
T34 construct: purchased DiscoverX ScanMAX Kinase analysis panel
Experimental: as §1, §2

YSK4 = target: T35, YSK4 (Homo sapiens, UniProt Q56UN5); details: read-out: adjusted percentage (% control)
T35 construct: purchased DiscoverX ScanMAX Kinase analysis panel
Experimental: as §1, §2

T35 sequence (Q56UN5 whole entry): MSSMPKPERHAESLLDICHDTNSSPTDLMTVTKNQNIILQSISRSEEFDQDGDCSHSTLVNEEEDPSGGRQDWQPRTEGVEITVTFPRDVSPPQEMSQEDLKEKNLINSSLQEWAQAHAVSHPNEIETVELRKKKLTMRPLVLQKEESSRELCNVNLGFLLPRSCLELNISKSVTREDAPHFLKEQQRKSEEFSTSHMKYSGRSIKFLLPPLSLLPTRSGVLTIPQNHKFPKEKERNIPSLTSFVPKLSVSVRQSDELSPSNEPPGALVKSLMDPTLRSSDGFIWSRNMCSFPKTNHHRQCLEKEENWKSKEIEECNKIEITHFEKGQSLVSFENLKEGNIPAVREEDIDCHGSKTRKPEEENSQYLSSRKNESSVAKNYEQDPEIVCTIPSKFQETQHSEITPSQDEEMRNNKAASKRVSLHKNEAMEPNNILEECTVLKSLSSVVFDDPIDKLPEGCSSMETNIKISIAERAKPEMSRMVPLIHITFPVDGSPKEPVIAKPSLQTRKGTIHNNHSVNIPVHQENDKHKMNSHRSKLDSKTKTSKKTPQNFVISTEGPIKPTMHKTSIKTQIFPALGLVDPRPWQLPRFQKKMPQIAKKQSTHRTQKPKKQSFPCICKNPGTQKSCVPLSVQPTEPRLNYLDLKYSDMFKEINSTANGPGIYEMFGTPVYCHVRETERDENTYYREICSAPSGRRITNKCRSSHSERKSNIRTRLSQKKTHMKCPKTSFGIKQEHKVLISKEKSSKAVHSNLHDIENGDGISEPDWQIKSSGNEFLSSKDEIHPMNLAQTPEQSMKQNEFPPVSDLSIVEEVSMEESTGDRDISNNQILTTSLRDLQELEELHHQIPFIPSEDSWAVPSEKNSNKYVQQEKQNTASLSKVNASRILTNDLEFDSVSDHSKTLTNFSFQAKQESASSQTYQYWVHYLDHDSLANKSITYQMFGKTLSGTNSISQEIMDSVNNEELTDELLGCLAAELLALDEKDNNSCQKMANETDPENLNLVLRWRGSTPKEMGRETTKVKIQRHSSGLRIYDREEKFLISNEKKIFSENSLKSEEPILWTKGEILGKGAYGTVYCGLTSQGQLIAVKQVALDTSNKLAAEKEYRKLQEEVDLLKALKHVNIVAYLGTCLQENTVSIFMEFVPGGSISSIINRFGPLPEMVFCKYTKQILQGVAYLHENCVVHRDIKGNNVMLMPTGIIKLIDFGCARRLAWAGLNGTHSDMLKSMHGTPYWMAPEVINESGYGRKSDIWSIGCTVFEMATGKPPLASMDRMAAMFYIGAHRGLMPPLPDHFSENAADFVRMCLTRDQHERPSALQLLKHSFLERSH
T20 sequence (Q08881 whole entry): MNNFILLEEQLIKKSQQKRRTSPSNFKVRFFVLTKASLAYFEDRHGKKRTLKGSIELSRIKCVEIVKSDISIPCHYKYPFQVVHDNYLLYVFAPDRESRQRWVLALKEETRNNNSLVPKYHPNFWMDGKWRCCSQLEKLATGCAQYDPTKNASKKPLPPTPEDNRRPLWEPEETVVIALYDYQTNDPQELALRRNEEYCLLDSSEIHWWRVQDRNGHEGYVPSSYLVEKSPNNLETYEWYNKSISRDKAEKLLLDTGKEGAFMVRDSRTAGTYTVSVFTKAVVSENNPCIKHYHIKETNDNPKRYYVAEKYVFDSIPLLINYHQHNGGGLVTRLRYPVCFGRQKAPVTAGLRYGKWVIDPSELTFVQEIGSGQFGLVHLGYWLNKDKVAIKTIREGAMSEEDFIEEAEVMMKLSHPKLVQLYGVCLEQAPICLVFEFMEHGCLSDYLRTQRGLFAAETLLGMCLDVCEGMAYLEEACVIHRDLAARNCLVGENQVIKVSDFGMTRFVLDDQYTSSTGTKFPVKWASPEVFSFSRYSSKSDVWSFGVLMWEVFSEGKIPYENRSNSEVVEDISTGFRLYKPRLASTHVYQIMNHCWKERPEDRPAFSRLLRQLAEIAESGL
T28 sequence (P07949 29-1114 V804L): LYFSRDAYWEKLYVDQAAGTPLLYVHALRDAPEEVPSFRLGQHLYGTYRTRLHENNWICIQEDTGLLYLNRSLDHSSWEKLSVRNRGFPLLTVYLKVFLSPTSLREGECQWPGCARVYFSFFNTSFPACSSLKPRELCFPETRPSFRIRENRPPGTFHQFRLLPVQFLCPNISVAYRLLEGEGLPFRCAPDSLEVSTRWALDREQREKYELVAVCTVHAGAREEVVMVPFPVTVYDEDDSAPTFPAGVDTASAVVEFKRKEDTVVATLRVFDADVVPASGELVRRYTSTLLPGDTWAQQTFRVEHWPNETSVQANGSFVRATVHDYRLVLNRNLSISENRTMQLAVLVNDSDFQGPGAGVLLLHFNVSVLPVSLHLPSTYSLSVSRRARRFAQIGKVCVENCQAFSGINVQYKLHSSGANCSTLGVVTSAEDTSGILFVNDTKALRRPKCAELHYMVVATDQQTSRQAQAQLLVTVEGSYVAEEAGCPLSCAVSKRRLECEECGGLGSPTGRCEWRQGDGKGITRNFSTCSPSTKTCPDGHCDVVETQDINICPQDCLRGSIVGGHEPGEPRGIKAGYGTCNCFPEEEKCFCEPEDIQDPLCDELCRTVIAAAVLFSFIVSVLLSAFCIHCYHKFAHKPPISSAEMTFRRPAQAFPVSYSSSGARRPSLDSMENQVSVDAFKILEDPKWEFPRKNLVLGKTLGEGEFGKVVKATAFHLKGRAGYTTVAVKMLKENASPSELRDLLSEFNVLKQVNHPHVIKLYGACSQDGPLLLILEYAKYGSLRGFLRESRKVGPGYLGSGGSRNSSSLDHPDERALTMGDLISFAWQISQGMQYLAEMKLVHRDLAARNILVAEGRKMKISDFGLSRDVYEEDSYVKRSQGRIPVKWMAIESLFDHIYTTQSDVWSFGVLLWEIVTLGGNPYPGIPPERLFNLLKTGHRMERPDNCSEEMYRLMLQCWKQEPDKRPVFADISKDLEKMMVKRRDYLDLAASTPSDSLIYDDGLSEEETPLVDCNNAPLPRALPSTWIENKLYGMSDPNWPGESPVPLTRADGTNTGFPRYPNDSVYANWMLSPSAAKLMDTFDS
T22 sequence (P10721 26-976 V559D): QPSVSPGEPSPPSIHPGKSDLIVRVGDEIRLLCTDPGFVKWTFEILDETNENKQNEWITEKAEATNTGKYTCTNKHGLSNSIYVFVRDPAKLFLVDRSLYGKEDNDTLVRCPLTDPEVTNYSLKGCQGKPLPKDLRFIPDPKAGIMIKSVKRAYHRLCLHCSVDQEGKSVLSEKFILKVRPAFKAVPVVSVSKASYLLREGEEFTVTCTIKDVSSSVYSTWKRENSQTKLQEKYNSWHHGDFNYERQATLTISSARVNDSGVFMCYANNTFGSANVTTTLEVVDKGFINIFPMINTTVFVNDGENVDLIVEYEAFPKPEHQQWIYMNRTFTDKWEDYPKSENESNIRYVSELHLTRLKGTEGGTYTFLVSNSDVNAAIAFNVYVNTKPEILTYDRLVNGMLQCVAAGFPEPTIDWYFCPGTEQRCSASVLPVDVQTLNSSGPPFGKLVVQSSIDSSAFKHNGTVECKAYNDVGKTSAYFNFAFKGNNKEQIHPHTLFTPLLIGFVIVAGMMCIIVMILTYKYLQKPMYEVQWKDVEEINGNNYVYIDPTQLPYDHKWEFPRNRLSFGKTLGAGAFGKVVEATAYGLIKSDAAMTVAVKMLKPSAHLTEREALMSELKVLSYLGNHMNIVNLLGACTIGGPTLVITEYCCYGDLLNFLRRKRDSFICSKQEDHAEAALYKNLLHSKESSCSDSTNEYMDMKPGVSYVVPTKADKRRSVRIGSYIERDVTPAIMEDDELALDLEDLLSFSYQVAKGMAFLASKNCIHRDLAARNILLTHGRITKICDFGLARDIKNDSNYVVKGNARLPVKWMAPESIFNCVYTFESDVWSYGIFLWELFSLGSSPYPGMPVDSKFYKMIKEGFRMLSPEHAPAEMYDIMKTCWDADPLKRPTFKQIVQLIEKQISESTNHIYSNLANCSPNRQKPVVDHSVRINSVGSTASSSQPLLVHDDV
T32 sequence (P04629 33-796): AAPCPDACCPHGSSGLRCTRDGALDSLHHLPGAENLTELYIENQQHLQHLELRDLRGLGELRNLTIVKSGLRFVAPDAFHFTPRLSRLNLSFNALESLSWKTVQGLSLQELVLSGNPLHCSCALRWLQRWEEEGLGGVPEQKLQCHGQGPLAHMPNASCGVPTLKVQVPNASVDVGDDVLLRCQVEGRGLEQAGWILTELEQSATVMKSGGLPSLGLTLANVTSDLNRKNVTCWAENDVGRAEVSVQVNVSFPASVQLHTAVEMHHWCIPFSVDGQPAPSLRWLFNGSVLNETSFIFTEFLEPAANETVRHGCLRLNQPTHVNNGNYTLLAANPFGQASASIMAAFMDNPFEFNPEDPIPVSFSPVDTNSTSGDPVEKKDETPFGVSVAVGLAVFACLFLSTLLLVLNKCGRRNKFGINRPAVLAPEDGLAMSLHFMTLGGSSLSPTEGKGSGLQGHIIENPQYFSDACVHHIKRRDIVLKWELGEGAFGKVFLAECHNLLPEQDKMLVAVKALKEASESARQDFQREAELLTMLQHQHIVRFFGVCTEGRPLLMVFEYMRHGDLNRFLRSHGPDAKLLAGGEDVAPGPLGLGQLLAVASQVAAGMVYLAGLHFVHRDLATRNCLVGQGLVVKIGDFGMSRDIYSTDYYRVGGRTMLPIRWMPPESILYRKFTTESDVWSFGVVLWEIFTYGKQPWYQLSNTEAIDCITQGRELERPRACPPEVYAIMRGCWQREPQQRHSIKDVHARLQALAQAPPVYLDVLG
T21 sequence (P10721 26-976 A829P): as the sequence (P10721 26-976 V559D) above, with D534V, A804P counted along it

Structure (SMILES)	remaining binding at 1 µM [1] [%]	remaining binding at 1 µM [2] [%]	remaining binding at 1 µM [3] [%]	remaining binding at 1 µM [4] [%]	remaining binding at 1 µM [5] [%]	remaining binding at 1 µM [6] [%]	remaining binding at 1 µM [7] [%]	remaining binding at 1 µM (ABL1-phosphorylated) [%]	remaining binding at 1 µM (AMPK-alpha1) [%]	remaining binding at 1 µM (AURKA) [%]	remaining binding at 1 µM (AXL) [%]	remaining binding at 1 µM (DLK) [%]	remaining binding at 1 µM [8] [%]	remaining binding at 1 µM (FGFR1) [%]	remaining binding at 1 µM (FLT3) [%]	remaining binding at 1 µM (FLT3(D835V)) [%]	remaining binding at 1 µM (FLT3(D835Y)) [%]	adjusted percentage (% control) (FLT3(ITD, F691L)) [%]	remaining binding at 1 µM (FLT3(R834Q)) [%]	remaining binding at 1 µM (HCK) [%]	also measured
COc1ccc(CN2C3CC2CN(c2ccc(-c4nc(Nc5cc(C)[nH]n5)c5occc5n4)cn2)C3)cn1 [Example 1, 2-(6-(6-((6-methoxypyridin-3-yl)methyl)-3,6-diazabicyclo[3.1.1]heptan-3-yl)pyridin-3-yl)-N-(5-methyl-1H-pyrazol-3-yl)furo[3,2-d]pyrimidin-4-amine]	10	28	16	15	20	19	20	30	26	4.1	1.2	29	16	11	1.2	1.3	1.5	1.4	23	4.1	remaining binding at 1 µM (ITK): 2%; remaining binding at 1 µM (KIT(A829P)): 2.8%; remaining binding at 1 µM (KIT(V559D)): 34%; remaining binding at 1 µM (LCK): 2.5%; remaining binding at 1 µM (MEK5): 9.9%; remaining binding at 1 µM (MST1): 25%; remaining binding at 1 µM (PDGFRB): 15%; remaining binding at 1 µM (PLK4): 1.3%; remaining binding at 1 µM (RET(V804L)): 1.1%; remaining binding at 1 µM (RIOK3): 13%; remaining binding at 1 µM (SNARK): 22%; remaining binding at 1 µM (SYK): 3.1%; remaining binding at 1 µM (TRKA): 0%; remaining binding at 1 µM (TRKB): 1.6%; remaining binding at 1 µM (TRKC): 0.45%; remaining binding at 1 µM (YSK4): 6.2%
COc1ccc(CN2C3CC2CN(c2ccc(-c4nc(Nc5cc(C)[nH]n5)c5ccccc5n4)cn2)C3)cn1 [Example 3, 2-(6-(6-((6-methoxypyridin-3-yl)methyl)-3,6-diazabicyclo [3.1.1]heptan-3-yl)pyridin-3-yl)-N-(5-methyl-1H-pyrazol-3-yl)quinazolin-4-amine]	2.5	21	15	17	2.9	3.2	21	15	33	2.2	0	19	17	4.3	0.55	0	0.55	8.8	9.1	3.2	remaining binding at 1 µM (ITK): 1.6%; remaining binding at 1 µM (KIT(A829P)): 11%; remaining binding at 1 µM (KIT(V559D)): 4.2%; remaining binding at 1 µM (LCK): 1.8%; remaining binding at 1 µM (MEK5): 2.2%; remaining binding at 1 µM (MST1): 30%; remaining binding at 1 µM (PDGFRB): 2.7%; remaining binding at 1 µM (PLK4): 1.2%; remaining binding at 1 µM (RET(V804L)): 0.4%; remaining binding at 1 µM (RIOK3): 30%; remaining binding at 1 µM (SNARK): 17%; remaining binding at 1 µM (SYK): 2.2%; remaining binding at 1 µM (TRKA): 0%; remaining binding at 1 µM (TRKB): 2.1%; remaining binding at 1 µM (TRKC): 1%; remaining binding at 1 µM (YSK4): 5%
